Results reported in the supplement of paper PMC11451515.

How the values were obtained:
Details in all cases: 48 h
NOMO1 [1] = experiment: AUC of viability dose-response curve (% viability x log10 dose units); higher = less sensitive
In short: (§1)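 Area under the curve was integrated by trapezoidal rule from a log-logistic fit of normalised viability, with curves exceeding full viability scaled and quality-control failures removed. The fit had four parameters over log10 doses. Viability came from CellTiter-Glo One luminescence, normalised per plate to DMSO and cell-free wells, after leukemia cells adapted to each medium (500 or 1000 cells/well, 1536-well plates) were exposed to library compounds in DMSO for 48 h at 37°C. The 11 threefold doses ran from 47 μM to 0.79 nM.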

SEM cells [2] = experiment: as above
In short: as §1

P12-Ichikawa [3] = experiment: as above
In short: as §1

NOMO1 [4] = experiment: cell viability relative to DMSO control; higher = less cytotoxic
In short: (§2)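 Leukemia cells (NOMO1 or SEM, 500 cells/well; P12-Ichikawa, 1000 cells/well) were seeded in 5 μl in 1536-well plates after at least four passages of adaptation to each medium. They received library compounds in DMSO by pin dosing, 11 threefold points from 47 μM to 0.79 nM. Luminescence with CellTiter-Glo One was read after 48 h at 37°C. Viability is stated per plate relative to DMSO wells, with cell-free wells as background.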

SEM cells [5] = experiment: as above
In short: as §2

P12-Ichikawa [6] = experiment: as above
In short: as §2

CCOC(=O)\C1=C\[C@]2(CC)CCCN3CCC4=C([C@H]23)[N]1C5=C4C=CC=C5
AUC of viability dose-response curve
Details	NOMO1 [1]	P12-Ichikawa [3]	SEM cells [2]
HPLM + 10% dialyzed FBS	464	469	464
RPMI 5 mM glucose + 10% FBS	464	470	469
RPMI 5 mM glucose + 10% dialyzed FBS	466	468	476

cell viability [%]
Details	NOMO1 [4]	P12-Ichikawa [6]	SEM cells [5]
HPLM + 10% dialyzed FBS, 0.000781 µM	104	98.7	71.6
HPLM + 10% dialyzed FBS, 0.00234 µM	118	106	100
HPLM + 10% dialyzed FBS, 0.00702 µM	122	107	87.6
HPLM + 10% dialyzed FBS, 0.0211 µM	124	104	111
HPLM + 10% dialyzed FBS, 0.0632 µM	125	111	118
HPLM + 10% dialyzed FBS, 0.19 µM	126	105	103
HPLM + 10% dialyzed FBS, 0.569 µM	131	110	104
HPLM + 10% dialyzed FBS, 1.71 µM	123	102	111
HPLM + 10% dialyzed FBS, 5.12 µM	124	115	114
HPLM + 10% dialyzed FBS, 15.4 µM	126	108	97.7
HPLM + 10% dialyzed FBS, 46.1 µM	54.5	101	80.7
RPMI 5 mM glucose + 10% FBS, 0.000781 µM	95.3	99.6	103
RPMI 5 mM glucose + 10% FBS, 0.00234 µM	103	118	104
RPMI 5 mM glucose + 10% FBS, 0.00702 µM	113	109	111
RPMI 5 mM glucose + 10% FBS, 0.0211 µM	113	110	114
RPMI 5 mM glucose + 10% FBS, 0.0632 µM	123	123	121
RPMI 5 mM glucose + 10% FBS, 0.19 µM	120	111	112
RPMI 5 mM glucose + 10% FBS, 0.569 µM	135	109	110
RPMI 5 mM glucose + 10% FBS, 1.71 µM	113	116	108
RPMI 5 mM glucose + 10% FBS, 5.12 µM	102	111	109
RPMI 5 mM glucose + 10% FBS, 15.4 µM	111	114	107
RPMI 5 mM glucose + 10% FBS, 46.1 µM	57.7	79.6	77.1
RPMI 5 mM glucose + 10% dialyzed FBS, 0.000781 µM	91.8	89.5	93.7
RPMI 5 mM glucose + 10% dialyzed FBS, 0.00234 µM	105	106	111
RPMI 5 mM glucose + 10% dialyzed FBS, 0.00702 µM	118	109	112
RPMI 5 mM glucose + 10% dialyzed FBS, 0.0211 µM	122	104	108
RPMI 5 mM glucose + 10% dialyzed FBS, 0.0632 µM	108	107	116
RPMI 5 mM glucose + 10% dialyzed FBS, 0.19 µM	113	108	124
RPMI 5 mM glucose + 10% dialyzed FBS, 0.569 µM	119	113	126
RPMI 5 mM glucose + 10% dialyzed FBS, 1.71 µM	110	105	108
RPMI 5 mM glucose + 10% dialyzed FBS, 5.12 µM	108	105	118
RPMI 5 mM glucose + 10% dialyzed FBS, 15.4 µM	105	109	105
RPMI 5 mM glucose + 10% dialyzed FBS, 46.1 µM	70.5	65.7	94.7

CCCN1CCO[C@@H]2c3cc(O)ccc3OC[C@H]21
AUC of viability dose-response curve
Details	NOMO1 [1]	P12-Ichikawa [3]	SEM cells [2]
HPLM + 10% dialyzed FBS	451	448	406
RPMI 5 mM glucose + 10% FBS	456	446	424
RPMI 5 mM glucose + 10% dialyzed FBS	456	441	433

cell viability [%], HPLM + 10% dialyzed FBS
Details	P12-Ichikawa [6]	SEM cells [5]
0.000781 µM	125	120
0.00234 µM	123	123
0.00702 µM	128	135
0.0211 µM	120	112
0.0632 µM	120	122
0.19 µM	118	118
0.569 µM	113	105
1.71 µM	114	103
5.12 µM	114	68.4
15.4 µM	101	99.7
46.1 µM	12.1	48.1

Cc1cnc(Nc2ccc(F)cc2Cl)nc1-c1c[nH]c(C(=O)N[C@H](CO)c2cccc(Cl)c2)c1
AUC of viability dose-response curve
Details	NOMO1 [1]	P12-Ichikawa [3]	SEM cells [2]
HPLM + 10% dialyzed FBS	353	389	467
RPMI 5 mM glucose + 10% FBS	335	384	452
RPMI 5 mM glucose + 10% dialyzed FBS	364	411	443

SEM cells [5], HPLM + 10% dialyzed FBS
Details	cell viability [%]
0.000781 µM	109
0.00234 µM	125
0.00702 µM	114
0.0211 µM	137
0.0632 µM	126
0.19 µM	134
0.569 µM	134
1.71 µM	125
5.12 µM	136
15.4 µM	121
46.1 µM	84.9

CC(C)OC(=O)[C@H](C)N[P@](=O)(OC[C@H]1O[C@@H](N2\C=C/C(=O)NC2=O)[C@](C)(F)[C@@H]1O)OC3=CC=CC=C3
AUC of viability dose-response curve
Details	NOMO1 [1]	P12-Ichikawa [3]	SEM cells [2]
HPLM + 10% dialyzed FBS	372	331	387
RPMI 5 mM glucose + 10% FBS	412	391	399
RPMI 5 mM glucose + 10% dialyzed FBS	409	385	405

cell viability [%]
Details	NOMO1 [4]	P12-Ichikawa [6]	SEM cells [5]
HPLM + 10% dialyzed FBS, 0.000781 µM	115	104	105
HPLM + 10% dialyzed FBS, 0.00234 µM	125	111	111
HPLM + 10% dialyzed FBS, 0.00702 µM	119	117	122
HPLM + 10% dialyzed FBS, 0.0211 µM	122	110	120
HPLM + 10% dialyzed FBS, 0.0632 µM	127	102	99.4
HPLM + 10% dialyzed FBS, 0.19 µM	131	108	131
HPLM + 10% dialyzed FBS, 0.569 µM	87.5	94.3	106
HPLM + 10% dialyzed FBS, 1.71 µM	91	41.5	98.4
HPLM + 10% dialyzed FBS, 5.12 µM	40.5	8.75	57.7
HPLM + 10% dialyzed FBS, 15.4 µM	34.3	6.42	17.6
HPLM + 10% dialyzed FBS, 46.1 µM	40.8	9.25	18.5
RPMI 5 mM glucose + 10% FBS, 0.000781 µM	101	113	125
RPMI 5 mM glucose + 10% FBS, 0.00234 µM	99.8	99	120
RPMI 5 mM glucose + 10% FBS, 0.00702 µM	116	124	130
RPMI 5 mM glucose + 10% FBS, 0.0211 µM	98.4	109	122
RPMI 5 mM glucose + 10% FBS, 0.0632 µM	107	112	121
RPMI 5 mM glucose + 10% FBS, 0.19 µM	99.9	101	125
RPMI 5 mM glucose + 10% FBS, 0.569 µM	95.7	110	125
RPMI 5 mM glucose + 10% FBS, 1.71 µM	98	98.1	120
RPMI 5 mM glucose + 10% FBS, 5.12 µM	87.3	69.3	88.1
RPMI 5 mM glucose + 10% FBS, 15.4 µM	17.5	7.18	14.3
RPMI 5 mM glucose + 10% FBS, 46.1 µM	19	5.81	9.48
RPMI 5 mM glucose + 10% dialyzed FBS, 0.000781 µM	101	96.2	101
RPMI 5 mM glucose + 10% dialyzed FBS, 0.00234 µM	110	105	109
RPMI 5 mM glucose + 10% dialyzed FBS, 0.00702 µM	115	106	106
RPMI 5 mM glucose + 10% dialyzed FBS, 0.0211 µM	130	103	120
RPMI 5 mM glucose + 10% dialyzed FBS, 0.0632 µM	114	102	111
RPMI 5 mM glucose + 10% dialyzed FBS, 0.19 µM	100	102	115
RPMI 5 mM glucose + 10% dialyzed FBS, 0.569 µM	99.8	101	107
RPMI 5 mM glucose + 10% dialyzed FBS, 1.71 µM	101	93.1	105
RPMI 5 mM glucose + 10% dialyzed FBS, 5.12 µM	81.3	49.8	86.8
RPMI 5 mM glucose + 10% dialyzed FBS, 15.4 µM	23.7	12	17.3
RPMI 5 mM glucose + 10% dialyzed FBS, 46.1 µM	24.1	11.3	9.7
